The results in this text go back to PubChem BioAssay (NCI).

Common to all, as to test: NCI-60 cell line screen, 48 h
Assay [1] concerns OVCAR-5 ovarian.
In assay [2] the test system is SF-295 CNS.
Assay [3] relates to OVCAR-8 ovarian.
In assay [4] the test system is HL-60(TB) leukemia.
For assay [5], the system named is TK-10 renal.
Assay [6] has as its system SNB-75 CNS.
Assay [7] has as its system UO-31 renal.
Assay [8] deals with OVCAR-3 ovarian.
In assay [9] the test system is PC-3 prostate.
Assay [10] concerns MCF7 breast.

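96-well plates; 48 h exposure; 5 concentrations. Endpoints by linear interpolation between flanking doses. Not reached: highest tested concentration assigned. Abbreviation: GI50, concentration required for 50% inhibition of growth. Definition used: TGI = concentration required for complete inhibition of growth.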 Some results are limits rather than exact numbers.

Consider `COC(=O)C1C(C(=O)OC)C2C(=O)C3C(C(=O)OC)C(C(=O)OC)C3C(=O)C12` (configuration not stated), for which the TGI in assay [1], in [2], in assay [3], in [4] and in [5] was above 100 µM in each case.
In the case of `CC1=N/C(=C\c2ccc(/C=C3/N=C(C)OC3=O)cc2)C(=O)O1`, the TGI in assay [6], in [3], in assay [7], in assay [8] and in assay [5] was above 100 µM throughout.
As to `COc1cc(Nc2cnc3ccc(C(F)(F)F)cc3n2)cc(OC)c1OC`, the TGI in assay [1] is above 100 µM; in [2], 91.2 µM; in assay [3] it was above 100 µM; in assay [7] it was above 100 µM; in assay [8], above 100 µM; in [4] it was above 100 µM. In [5], this compound gave a TGI above 100 µM.
As for `COC(=O)/C=C(/C(=O)OC)C1(C)c2cc(C(=O)OC)c(C(=O)OC)c(N)c2C(=N)N1c1ccccc1` (configuration not stated), the TGI in assay [1] was above 100 µM; in [6] it was 81 µM; in assay [2], 40.2 µM; in assay [3] it was 37.9 µM; in assay [7], 47.1 µM; in [8], 38.3 µM. Also, the TGI is 32.6 µM in [4] and above 100 µM in assay [5].
Turning to `Cc1ccc(S(=O)(=O)OCC/C(=C\[Si](C)(C)C)c2ccccc2)cc1`, the TGI in assay [1], in assay [6], in [2], in [3], in [7] and in assay [8] was above 100 µM in each case. Moreover, the TGI in [4] and in [5] was above 100 µM throughout.
For `FC(F)(F)Oc1cccc(-c2cc(NCCCCCCNc3cc(-c4cccc(OC(F)(F)F)c4)nc4ccc(N5CCCC5)cc34)c3cc(N4CCCC4)ccc3n2)c1`, the GI50 was 1.76 µM in assay [1]; 1.66 µM in assay [6]; 1.69 µM in [2]; 2.13 µM in assay [3]; 1.54 µM in assay [7]; 2.02 µM in [9]. Besides, the results for the GI50 in [10], in assay [8] and in assay [5] were 1.73 µM, 1.83 µM and 1.78 µM, respectively. The TGI turned out to be 3.18 µM in [1]; 3.16 µM in assay [6]; 3.11 µM in assay [2]; 5.08 µM in assay [3]; 2.88 µM in assay [7]; 4.42 µM in assay [9]. Besides, the TGI turned out to be 3.49 µM in [10], 3.24 µM in assay [8] and 3.37 µM in assay [5].
With `O=C1NC(=O)c2c1n(Cc1ccccc1)c(=O)n2Cc1ccccc1`, the TGI in assay [1], in [6], in assay [2], in [3], in assay [7] and in assay [8] was above 100 µM each time. Besides, the TGI in assay [4] and in assay [5] was above 100 µM in each case.
For the compound `CCOC(=O)c1nc(C)oc1C(F)(F)F`, the TGI in assay [1], in assay [6], in [2], in assay [3], in [7] and in assay [8] was above 100 µM throughout. The TGI in assay [4] and in [5] was above 100 µM in each case.
With `COc1nc2c(c(O)c(C)c(=O)n2OC2OCC(OC(C)=O)C(OC(C)=O)C2OC(C)=O)c(=O)n1C` (configuration not stated), the TGI in [1], in assay [6], in assay [2], in assay [3], in [7] and in assay [5] was above 100 µM each time.
In the case of `O=C1[C@@H]2C(c3c(Cl)cccc3Cl)=NO[C@@H]2C(=O)N1c1ccc(Cc2ccc(N3C(=O)[C@H]4C(c5c(Cl)cccc5Cl)=NO[C@H]4C3=O)cc2)cc1`, the TGI in assay [1], in assay [6], in [2], in [3], in [7] and in assay [8] was above 100 µM throughout. Further, the TGI in assay [4] and in assay [5] was above 100 µM throughout.
As for `N#CC(C(=O)C(=O)Nc1c(Cl)cccc1Cl)c1ccccc1` (configuration not stated), the GI50 in [1], in assay [6], in assay [2], in assay [7], in assay [8] and in [4] was above 100 µM throughout. Also, the GI50 in [5] is above 100 µM. The TGI in [6], in assay [3], in [7], in [8], in [4] and in [5] was above 100 µM throughout.
On to `N#C/C(=C\c1cc(OCc2ccccc2)c(OCc2ccccc2)cn1)C(N)=O`, for which the TGI in assay [1], in [6], in [2], in assay [3], in assay [7] and in [8] was above 100 µM each time. Also, the results for the TGI in assay [4] and in assay [5] were 36.9 µM and above 100 µM, respectively.
Take `NNC(=O)C(=O)N/N=C1/CCCC1C(=O)CCC(=O)Nc1ccc(Cl)cc1` (configuration not stated): the TGI in assay [1], in [6], in [2], in assay [3], in [7] and in [8] was above 100 µM throughout. The TGI in [4] and in assay [5] was above 100 µM each time.
`Nc1ncc(Cc2ccc3c(c2)OCO3)c(N)n1`: the TGI in assay [1], in assay [2], in assay [3], in assay [7], in assay [9] and in assay [10] was above 100 µM each time. The TGI in assay [8], in assay [4] and in [5] was above 100 µM each time.
With `Cc1ccc2c(c1)CN1c3ccc(C)cc3CN2C1c1ccccc1O`, the TGI in [1] was above 100 µM; in [6], 9.08 µM; in [2], above 100 µM; in assay [3], above 100 µM; in [7], 88.2 µM; in assay [8], above 100 µM. In addition, the TGI in [4] is above 100 µM; in assay [5], 88.1 µM.
